Measurements taken from patent publication US7842856B2, “Herbicide resistance gene, compositions and methods” (The Board of Trustees of the University of Illinois, priority 2005, dated 2010).

Key:
[1] = test system: A. tuberculatus F1(R) hybrid (maternal parent R); experiment: Herbicide dose-response on whole plants, F1(R) line; format: in vivo, Amaranthus tuberculatus (waterhemp); conditions: for GR50 (growth reduction by 50%) F1(R): F1(R) line
[2] = test system: A. tuberculatus F1(S) hybrid (maternal parent S); experiment: Herbicide dose-response on whole plants, F1(S) line; format: in vivo, Amaranthus tuberculatus (waterhemp)
[3] = test system: A. tuberculatus PPO2L with glycine at position 210 expressed in E. coli SASX38; format: cell-based; conditions: LB with lactofen (100 nM, FIG. 6), 37° C., 14 hrs

SMILES | GR50 (growth reduction by 50%) F1(R) ([1]; 10 DAT) [g ai ha^−1] | GR50 (growth reduction by 50%) F1(R) ([1]; 15 DAT) [g ai ha^−1] | fold higher doses survived compared with S plants ([1]; lines heterozygous for resistance vs S plants (FIG. 2; Table 2)) [fold] | GR50 (growth reduction by 50%) F1(S) ([2]; 10 DAT) [g ai ha^−1] | GR50 (growth reduction by 50%) F1(S) ([2]; 15 DAT) [g ai ha^−1] | growth of E. coli on lactofen-supplemented medium [3]
CCOC(=O)C(C)OC(=O)c1cc(Oc2ccc(C(F)(F)F)cc2Cl)ccc1[N+](=O)[O-] (racemic) [Lactofen, (±)-2-ethoxy-1-methyl-2-oxoethyl 5-{2-chloro-4-(trifluoromethyl)phenoxy}-2-nitrobenzoate] | 0.7 | 12 | 31 | 1.6 | 13 | dramatically inhibited growth
O=C(O)c1cc(Oc2ccc(C(F)(F)F)cc2Cl)ccc1[N+](=O)[O-] [Acifluorfen, 5-{2-chloro-4-(trifluoromethyl)phenoxy}-2-nitrobezoic acid] | 3.8 |  |  | 4.1 |  | 
